The subject of assay [1] is Du145 (prostate) cancer cells. Nature of the assay: MTT growth inhibition assay, Du145. The conditions noted are these: 72 h, ± standard error, read-out: Growth Inhibition Concentration, GI50. It is filed as cell-based. The protocol: The Schiff bases and their organotin(IV) compounds were screened for in vitro cytotoxicity against a panel of 12 cancer cell lines: EJ-28 (muscle invasive bladder), RT-112 (minimum-invasive bladder), HT29 (colon), U87 and SJ-G2 (glioblastoma), MCF-7 (breast), A2780 (ovarian), H460 (lung), A431 (skin), DU145 (prostate), BE2-C (neuroblastoma), MIA (pancreatic) and one normal breast cell line (MCF-10A) using the MTT metabolic assay (Figure 6). After 72 h of incubation, a dose-dependent […] effect towards the cancer cell lines was measured at very low micromolar (µM) concentrations of the compounds. The growth inhibition concentration of the Schiff bases and their organotin(IV) compounds required to inhibit 50% cell proliferation relative to the cells that were treated with DMSO (control) are given in Table 2. The stability of these compounds was assessed in DMSO as well as in a mixture of DMSO-H2O. The absorbance obtained from UV-vis spectroscopy analysis was monitored for 72 h, and an unchanged pattern in the spectra was indicative that the compounds were stable in both the solvent systems tested.
For HT29 (colon), U87 and SJ-G2 (glioblastoma), MCF-7 (breast), A2780 (ovarian), H460 (lung), A431 (skin), Du145 (prostate), BE2-C (neuroblastoma), MIA (pancreas) cell lines and one normal breast cell line, MCF-10A (normal breast), the MTT assays were performed using the following method:
Stock solutions were prepared as follows and stored at −20 °C: Trial compounds were stored as 10 mM solutions in DMSO. All cell lines were cultured in a humidified atmosphere 5% CO2 at 37 °C. The cancer cell lines were maintained in Dulbecco’s modified Eagle’s medium (DMEM) (Trace Biosciences) supplemented with 10% foetal bovine serum, 10 mM sodium bicarbonate, penicillin (100 IU/mL), streptomycin (100 μg/mL) and glutamine (4 mM). The normal cell line, MCF-10A was cultured in DMEM:F12 (1:1) cell culture media, 5% heat inactivated horse serum, supplemented with penicillin (50 IU/mL), streptomycin (50 μg/mL), 20mM Hepes, L-glutamine (2 mM), epidermal growth factor (20 ng/mL), hydrocortisone (500 ng/mL), cholera toxin (100 ng/mL) and insulin (10 μg/mL).
Cells in logarithmic growth were transferred to 96-well plates. Cytotoxicity was determined by plating cells in duplicate in 100 μL medium at a density of 2500–4000 cells/well. On day 0 (24 h after plating), when the cells were in logarithmic growth, 100 μL medium, with or without the test agent, was added to each well. After 72 h drug exposure, growth inhibitory effects were evaluated using the MTT (3-[4,5-dimethylthiazol-2-yl]-2,5-diphenyltetrazolium bromide) assay and absorbance read at 540 nm. Percentage growth inhibition was determined at a fixed drug concentration of 25 μM. A value of 100% was indicative of complete cell growth inhibition. Those analogues showing appreciable percentage growth inhibition underwent further dose-response analysis allowing for the calculation of a GI50 value. This value is the drug concentration at which cell growth is 50% inhibited based on the difference between the optical density values on day 0 and those at the end of drug exposure.
For orientation: Formazan colour is commonly taken as a measure of viable cells.

A further assay concerns RT-112 cells. Nature of the assay: Intracellular ROS measurement (DCFH-DA). Type of assay: cell-based, human. The note with it: 24 h, DMSO as control. An excerpt: Two compounds with the most promising bioactivity, Ph2Sn(S2MoVa) and Ph2Sn(S4MoVa), were selected for further cell apoptosis studies, in order to evaluate the primary damage to biological macromolecules through redox reactions, particularly via formation of ROS [68]. ROS are highly reactive molecules/radicals (O2, O2^•, H2O2, HO^•) that are continuously generated during aerobic metabolism, but when in excessive amounts, can lead to protein and DNA oxidation, protein cross-linking and cell death. Estimation of the levels of ROS in cell culture is an important step towards better understanding the mechanisms that lead to cell death or disease processes. […] ROS production was measured using the ROS-detecting fluorescent dye DCFH-DA and DMSO was used as a control. Both compounds were able to induce ROS production in RT-112 cell lines after 24 h.
Intracellular ROS measurements were used to assess antioxidant or ROS activity. Measurements were performed using a fluorescence plate reader following to the procedure outlines in the ROS detection kit (OxiSelect™). […] The cells were then read on a standard Infinite M200 fluorescence microplate reader (Tecan, Männedorf, Switzerland). The ROS or antioxidant content in unknown samples was determined by comparison with the predetermined DCF standard curve.

Take “Diphenyltin(IV) [Ph2Sn(S2MoVa), Diphenyltin(IV) [S-2-Methybenzyl-β-N-(2-hydroxy-3-methoxybenzylmethylene) dithiocarbazate]]”: the GI50 in assay [1] is 1.7 ± 0.07 µM. Besides, the ROS generation entry in the assay on RT-112 cells is “stimulated ROS generation”.
Turning to “Diphenyltin(IV) [Ph2Sn(S4MoVa), Diphenyltin(IV) [S-4-Methybenzyl-β-N-(2-hydroxy-3-methoxybenzylmethylene) dithiocarbazate]]”, the GI50 in assay [1] came out at 1.5 ± 0.31 µM. Further, the ROS generation entry in the assay on RT-112 cells is on record as “stimulated ROS generation”.
